Values quoted from earlier work, collected in patent US20160331734A1, “SUBSTITUTED N-ARYL PYRIDINONES” (AUSPEX PHARMACEUTICALS, INC., priority 2014, published 2016).

Assays:
[1] = humans

half-life [1]: very short
SMILES: Cc1ccc(=O)n(-c2ccccc2)c1 [Pirfenidone, 5-Methyl-1-phenylpyridin-2(1H)-one]
DNA synthesis (leiomyoma cells): inhibits DNA synthesis | DNA synthesis (myometrial cells): inhibits DNA synthesis
